Among the data in patent US20240228469A1, “PCSK9 INHIBITORS AND METHODS OF USE THEREOF” (AstraZeneca AB, priority 2022, published 2024) are IC50 and Kd values, retold here.

Broadly, the IC50 is the point on the concentration scale where inhibition reaches its midpoint. The term Kd denotes the constant that tells how readily two partners part at equilibrium.

Each structure is given as a SMILES string.

Test [1] addresses GSK3β (Glycogen synthase kinase-3 beta) (Homo sapiens, UniProt P49841). In words: Assay 6 GSK3β assay (ThermoFisher Z-Lyte FRET). The format is biochemical. The settings on record: ATP Conc: 10 μM, geometric mean; read-out: Assay 6 (GSK3β FRET-Z-Lyte Cr) GMean IC50. The method, boiled down: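 Z-Lyte FRET: 0.22-0.92 ng kinase with 2 μM Ser/Thr 09 peptide in HEPES pH 7.5, MgCl2, EGTA, 60 min at room temperature, then 60 min development. Compounds in 1% DMSO, 10-point 3-fold series from 10 μM; sigmoidal dose-response fit.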

Test [2] has as its target PCSK9 (Homo sapiens, UniProt Q8NBP7). In words: Assay 2 Biophysical human PCSK9 assay (SPR, Biacore). The class given is binding. More on the design: biotinylated human PCSK9 (31-692)-Avi-His6; His6 (C). The conditions noted are these: single-cycle kinetics, 30° C., geometric mean, read-out: Assay 2 (PCSK9 BIAcore DBA Cr) GMean Kd. Background: Surface plasmon resonance follows binding to a sensor surface in real time, without labels.

GSK3β (Glycogen synthase kinase-3 beta), sequence (P49841 whole entry): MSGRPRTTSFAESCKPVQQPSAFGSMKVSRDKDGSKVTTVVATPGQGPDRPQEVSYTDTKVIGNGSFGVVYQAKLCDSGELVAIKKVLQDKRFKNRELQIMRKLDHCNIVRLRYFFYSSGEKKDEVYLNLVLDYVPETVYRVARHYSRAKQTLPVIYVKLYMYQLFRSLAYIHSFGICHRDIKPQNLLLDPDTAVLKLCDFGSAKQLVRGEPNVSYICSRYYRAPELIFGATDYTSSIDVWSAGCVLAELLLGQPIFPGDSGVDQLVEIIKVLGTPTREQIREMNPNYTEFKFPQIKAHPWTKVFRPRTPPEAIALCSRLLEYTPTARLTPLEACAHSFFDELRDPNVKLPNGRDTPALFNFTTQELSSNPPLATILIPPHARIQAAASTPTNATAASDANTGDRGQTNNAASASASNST
PCSK9, sequence (Q8NBP7 31-692): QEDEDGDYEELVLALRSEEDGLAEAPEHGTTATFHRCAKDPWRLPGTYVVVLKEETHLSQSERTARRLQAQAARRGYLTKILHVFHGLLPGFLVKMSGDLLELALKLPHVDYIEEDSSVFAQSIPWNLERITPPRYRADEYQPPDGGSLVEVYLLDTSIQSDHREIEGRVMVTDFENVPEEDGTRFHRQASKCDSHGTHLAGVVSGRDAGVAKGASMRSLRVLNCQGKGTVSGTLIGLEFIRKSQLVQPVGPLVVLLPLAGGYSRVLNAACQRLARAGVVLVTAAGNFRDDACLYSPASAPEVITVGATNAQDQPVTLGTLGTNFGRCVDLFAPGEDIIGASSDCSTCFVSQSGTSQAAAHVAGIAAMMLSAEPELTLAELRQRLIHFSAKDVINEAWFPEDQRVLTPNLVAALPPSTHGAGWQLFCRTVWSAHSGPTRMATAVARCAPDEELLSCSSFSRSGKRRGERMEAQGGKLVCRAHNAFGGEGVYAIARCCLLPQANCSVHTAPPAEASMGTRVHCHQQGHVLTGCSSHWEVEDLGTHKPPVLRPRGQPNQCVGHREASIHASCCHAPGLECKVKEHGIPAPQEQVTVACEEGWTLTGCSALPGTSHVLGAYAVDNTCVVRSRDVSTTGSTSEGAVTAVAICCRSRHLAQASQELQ

Consider `O=C(NC1COC1)c1cnc(N[C@H]2CC[C@H](Nc3ccc(-n4ccccc4=O)cn3)C2)nn1` [Example 70, N-(Oxetan-3-yl)-3-(((1S,3S)-3-((2-oxo-2H-[1,3′-bipyridin]-6′-yl)amino)cyclopentyl)amino)-1,2,4-triazine-6-carboxamide], for which the IC50 in test [1] was > 10 µM. In test [2], the Kd stood at 21 nM.

As for `Cc1cnc(N[C@H]2CC[C@H](Nc3ccc(-n4cccc(OC(F)F)c4=O)cn3)C2)nn1` [Example 187, 3-(Difluoromethoxy)-6′-(((1S,3S)-3-((6-methyl-1,2,4-triazin-3-yl)amino)cyclopentyl)amino)-2H-[1,3′-bipyridin]-2-one], in test [1], the IC50 worked out at 3.78 µM. For the same molecule, the Kd in test [2] came to 3.7 nM.

For the molecule `O=c1ccc(Cl)cn1-c1ccc(N[C@H]2CC[C@H](Nc3ncc(C4CC4)nn3)C2)nc1` [Example 112, 5-Chloro-6′-(((1S,3S)-3-((6-cyclopropyl-1,2,4-triazin-3-yl)amino)cyclopentyl)amino)-2H-[1,3′-bipyridin]-2-one], the IC50 in test [1] came out at 6.4 µM. The dissociation constant (Kd) in test [2] was 3.9 nM.

For `Cc1cnc(N[C@H]2CC[C@H](Nc3ccc(-n4cc(Cl)ccc4=O)cn3)C2)nn1` [Example 134, 5-Chloro-6′-(((1S,3S)-3-((6-methyl-1,2,4-triazin-3-yl)amino)cyclopentyl)amino)-2H-[1,3′-bipyridin]-2-one], the IC50 in test [1] is 0.439 µM. Moreover, the Kd in test [2] was 9.1 nM.

For the molecule `Cn1c(=O)n(-c2ccc(N[C@H]3CC[C@H](Nc4ncc(C5CC5)nn4)C3)nc2)c2cc(C#N)ccc21` [Example 116, 3-(6-(((1S,3S)-3-((6-Cyclopropyl-1,2,4-triazin-3-yl)amino)cyclopentyl)amino)pyridin-3-yl)-1-methyl-2-oxo-2,3-dihydro-1H-benzo[d]imidazole-5-carbonitrile], the IC50 in test [1] is > 10 µM. Further, the Kd in test [2] is 0.3 nM.

As to `O=c1ccccn1-c1ccc(N[C@H]2CC[C@H](Nc3ncc(C4CC4)nn3)C2)nc1` [Example 50, 6′-(((1S,3S)-3-((6-Cyclopropyl-1,2,4-triazin-3-yl)amino)cyclopentyl)amino)-2H-[1,3′-bipyridin]-2-one], the IC50 in test [1] was > 10 µM. In addition, the Kd in test [2] was 9.8 nM.

`Cc1cnc(N[C@H]2CC[C@H](Nc3ccc(-n4cccc(-c5cnn(C)c5)c4=O)cn3)C2)nn1` [Example 198, 6′-(((1S,3S)-3-((6-Methyl-1,2,4-triazin-3-yl)amino)cyclopentyl)amino)-3-(1-methyl-1H-pyrazol-4-yl)-2H-[1,3′-bipyridin]-2-one]: the IC50 in test [1] was > 10 µM. Moreover, in test [2], the Kd is 3.8 nM.

Consider `C#CCNC(=O)c1cnc(N[C@H]2CC[C@H](Nc3ccc(-n4ccccc4=O)cn3)C2)nn1` [Example 69, 3-(((1S,3S)-3-((2-Oxo-2H-[1,3′-bipyridin]-6′-yl)amino)cyclopentyl)amino)-N-(prop-2-yn-1-yl)-1,2,4-triazine-6-carboxamide], for which the half-inhibitory concentration (IC50) in test [1] was > 10 µM. Further, in test [2], the Kd turned out to be 12 nM.

`COc1ccc(=O)n(-c2ccc(N[C@H]3CC[C@H](Nc4ncc(C5CC5)nn4)C3)nc2)c1` [Example 65, 6′-(((1S,3S)-3-((6-Cyclopropyl-1,2,4-triazin-3-yl)amino)cyclopentyl)amino)-5-methoxy-2H-[1,3′-bipyridin]-2-one]: the IC50 in test [1] was 0.014 µM. In addition, the Kd in test [2] came to 5.8 nM.

Regarding `Cc1cnc(N[C@H]2CC[C@H](Nc3ccc(-n4cccc(C)c4=O)cn3)C2)nn1` [Example 131, 3-Methyl-6′-(((1S,3S)-3-((6-methyl-1,2,4-triazin-3-yl)amino)cyclopentyl)amino)-2H-[1,3′-bipyridin]-2-one], the IC50 in test [1] was > 10 µM. In addition, the Kd in test [2] is 2.4 nM.

As for `CN1C(=O)CN(c2ccc(N[C@H]3CC[C@H](Nc4ncc(C5CC5)nn4)C3)nc2)C1=O` [Example 62, 1-(6-(((1S,3S)-3-((6-Cyclopropyl-1,2,4-triazin-3-yl)amino)cyclopentyl)amino)pyridin-3-yl)-3-methylimidazolidine-2,4-dione], in test [1], the IC50 is > 10 µM. In addition, the Kd in test [2] stood at 4.3 nM.

For `Cc1cnc(N[C@H]2CC[C@H](Nc3ccc(-n4ccccc4=O)cn3)C2)nn1` [Example 67, 6′-(((1S,3S)-3-((6-Methyl-1,2,4-triazin-3-yl)amino)cyclopentyl)amino)-2H-[1,3′-bipyridin]-2-one], in test [1], the IC50 was determined as 2.1 µM. The Kd in test [2] was found to be 17 nM.

As to `Cc1cnc(N[C@H]2CC[C@H](Nc3ccc(-n4c(=O)ccc5cccnc54)cn3)C2)nn1` [Example 197, 1-(6-(((1S,3S)-3-((6-Methyl-1,2,4-triazin-3-yl)amino)cyclopentyl)amino)pyridin-3-yl)-1,8-naphthyridin-2(1H)-one], the IC50 in test [1] was > 10 µM. For the same molecule, the Kd in test [2] turned out to be 2.3 nM.

For the molecule `CNC(=O)c1cnc(N[C@H]2CC[C@H](Nc3ccc(-n4ccccc4=O)cn3)C2)nn1` [Example 75, N-Methyl-3-(((1S,3S)-3-((2-oxo-2H-[1,3′-bipyridin]-6′-yl)amino)cyclopentyl)amino)-1,2,4-triazine-6-carboxamide], in test [1], the IC50 is > 10 µM. Moreover, the dissociation constant (Kd) in test [2] was 16 nM.
